Active and inactive are the calls of the source.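 How the source made its calls: active means maximal percent inhibition of the deubiquitinase OTUD3 of at least 30% across the tested doses; inactive means the rest.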

One may read the IC50 as the concentration at which inhibition is half-maximal.

Chain of OTU domain-containing protein 3 (Homo sapiens) (Q5T2D3 whole entry, looked up, the tested form may be a part): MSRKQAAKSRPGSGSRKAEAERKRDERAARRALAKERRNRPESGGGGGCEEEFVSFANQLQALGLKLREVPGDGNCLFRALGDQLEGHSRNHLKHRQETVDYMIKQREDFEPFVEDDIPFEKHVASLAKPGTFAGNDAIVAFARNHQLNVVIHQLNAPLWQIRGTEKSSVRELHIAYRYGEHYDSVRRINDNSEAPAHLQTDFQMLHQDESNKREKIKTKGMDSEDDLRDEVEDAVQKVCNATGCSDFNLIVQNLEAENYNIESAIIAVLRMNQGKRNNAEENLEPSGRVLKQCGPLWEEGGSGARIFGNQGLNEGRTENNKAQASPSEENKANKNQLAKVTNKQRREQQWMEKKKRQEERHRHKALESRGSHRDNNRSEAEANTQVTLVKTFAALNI

This assay addresses OTU domain-containing protein 3 (Homo sapiens) (UniProt Q5T2D3). As to the kind of experiment: Validation of screening hits, potency titration, in vitro enzymatic, OTU domain-containing protein 3 DUB inhibitors (AID 1645868). Particulars: purified OTUD3, ubiquitin-rhodamine cleavage fluorescence, 2 h.
For `COC(=O)[C@]1(O)O[C@@]2(C(=O)OC)c3c(oc4cc(C)cc(O)c4c3=O)[C@H]3c4c(oc5cc(C)cc(O)c5c4=O)C[C@H]1[C@H]32`, the IC50 was > 50 µM (inactive). For the compound `CS(=O)(=O)N1CCc2cc(C(=O)Nc3ccc(Cc4ccncc4)cc3)ccc21`, the IC50 is > 50 µM (inactive). `O=C(Cn1cncc(-c2nc(-c3ccccc3)cs2)c1=O)NC1CCCC1`: the IC50 was > 50 µM (inactive). As for `CSc1cccc(NC(=O)COc2cccc3ccccc23)c1`, the figure is 39.6 µM. `Cc1cc(C)cc(N(CCC(=O)Nc2ccc(N3CCOCC3)cc2)S(=O)(=O)c2ccc(Cl)cc2)c1`: the IC50 is 19.7 µM. Regarding `O=c1ncn(Cc2ccc3c(c2)OCO3)cc1-c1ncc(C(F)(F)F)cc1Cl`, the IC50 was > 50 µM (inactive). Regarding `O=C(Nc1ccccc1)c1cn2c3c(cccc3c1=O)CC2`, the IC50 was > 50 µM (inactive). Consider `CCCC(=O)c1c[nH]c(C(=O)NCc2ccc(F)cc2)c1`, for which the IC50 was 32.9 µM.

Consider `COc1ccc(Cl)cc1NC(=O)c1cc(-c2ccccn2)n[nH]1`, for which the IC50 is 2.58 µM. `COc1ccc(-c2nc(SCC(=O)Nc3ccc(C(C)=O)cc3)n[nH]2)cc1`: the IC50 is 18.3 µM. Consider `COc1ccc(C(C(=O)NC2CCCCC2)N(C(=O)CCCC(=O)Nc2ccccn2)c2ccccc2C)cc1` (centres undefined), for which the IC50 was 22.3 µM. As for `CCNc1oc(-c2ccc(S(=O)(=O)N3CCCCC3)cc2)nc1C#N`, the figure is > 50 µM (inactive); as for `Cc1ccc(NC(=O)Cc2nnc3c(-c4nc(C5CC5)no4)cccn23)cc1`, 31.3 µM; as for `CCOc1ccc(-c2ccc3nnc(SCC(=O)Nc4cccc(C(C)=O)c4)n3n2)cc1`, > 50 µM (inactive). As for `Cc1cccc(NC(=O)Nc2ccc(C)n(CC(=O)Nc3ccccc3)c2=O)c1`, the figure is > 50 µM (inactive); as for `COc1ccc(CCNC(=O)c2cc3ccccc3s2)cc1OC`, > 50 µM (inactive). Consider `O=C(CSc1nc2cc(S(=O)(=O)Nc3ccccc3Cl)ccc2o1)Nc1ccc(N2CCOCC2)cc1`, for which the IC50 was > 50 µM (inactive). In the case of `O=C(NCc1ccc2c(c1)OCO2)c1ccc(C2SCC(=O)N2Cc2ccco2)cc1` (centres undefined), the IC50 is > 50 µM (inactive). For the compound `O=C(Nc1ccc(-c2cn3ccccc3n2)cc1)C1C=C2C=C(Br)C=CC2OC1=O` (centres undefined), the IC50 is > 50 µM (inactive). For the compound `C[C@@]12c3ccc4c(c3C(=O)c3occ(c31)C(O)C[C@H]2O)CCC4=O` (some centres undefined), the IC50 was > 50 µM (inactive). As for `CC1CCc2c(sc3ncnc(NC4CCN(CC(N)=O)CC4)c23)C1` (centres undefined), the figure is > 50 µM (inactive); as for `N#Cc1ccc(Cc2ncc(C(F)(F)F)cc2Cl)s1`, > 50 µM (inactive); as for `O=C(Cn1c(=O)n(Cc2ccccc2)c(=O)c2ncccc21)NCc1ccccc1Cl`, > 50 µM (inactive). Regarding `N#Cc1c(-c2cccs2)cc(-c2cccs2)[nH]c1=O`, the IC50 is > 50 µM (inactive). On to `COc1cccc(/C=C/C(=O)Nc2ccc(N3CCOCC3)cc2)c1OC`, for which the IC50 was > 50 µM (inactive).

For `Cc1cc(C)n(-c2cccc(C(=O)Nc3ccc4c(c3)CCN4S(C)(=O)=O)c2)n1`, the IC50 is > 50 µM (inactive). As for `CC1CCCCN1CCCNC(=O)c1ccc(N2CCc3ccccc32)s1` (centres undefined), the figure is > 50 µM (inactive); as for `Cc1ccc(-n2c(-c3ccccc3)cn3c4c(=O)[nH]c(=O)n(C)c4nc23)cc1Cl`, > 50 µM (inactive); as for `COc1ccc(-c2nc(Cn3nnc(C(=O)Nc4ccc(C)cc4C)c3N)c(C)o2)cc1`, > 50 µM (inactive). Turning to `CC1=C(c2ccc(Cl)cc2)S(=O)(=O)NC1=NCC(=O)Nc1ccc(F)cc1`, the IC50 was > 50 µM (inactive). As to `Cc1ccc2c(=O)c3c([nH]c2c1C)CCN(CC(=O)NCc1ccccc1)C3`, the IC50 is > 50 µM (inactive). Regarding `O=C(CSc1cn(Cc2ccccc2)c2ccccc12)Nc1ccc2c(c1)OCCO2`, the IC50 was > 50 µM (inactive). Take `CCn1ccc2c(cc(C(=O)Nc3cccc(OC)c3)n2C)c1=O`: the IC50 is > 50 µM (inactive). As to `COc1cccc(CNC(=O)C2=Cc3cccc(OC)c3OC2)c1`, the IC50 is > 50 µM (inactive). As for `CC(=O)N1CCCC(c2nc(C)cc(-c3cc(F)ccc3C(=O)O)n2)C1` (centres undefined), the figure is > 50 µM (inactive); as for `O=C(Cn1c(=O)n(Cc2ccc(F)cc2)c(=O)c2sccc21)Nc1cccc(Cl)c1`, 23.1 µM. Take `O=S1(=O)CCN(CC2CCCO2)c2c(Oc3ccccc3)nc(F)c(Cl)c21` (centres undefined): the IC50 is > 50 µM (inactive). As to `COc1ccc(-c2cc(C(=O)NC3CCCCCC3)[nH]n2)cc1S(=O)(=O)N(C)C`, the IC50 was > 50 µM (inactive).

As to `CC1=C(c2ccc(C)c(C)c2)S(=O)(=O)NC1=NCC(=O)NCCc1ccc(C)cc1`, the IC50 is > 50 µM (inactive). As for `O=C(Nc1ccc2sccc2c1)c1ccc(F)cc1`, the IC50 is > 50 µM (inactive). Turning to `O=S(=O)(c1cccc(F)c1)N1CCN(c2nnnn2-c2ccccc2)CC1`, the IC50 was > 50 µM (inactive).

With `CC(C)NC(=O)CN1C(=O)CC(C)Sc2ccc(S(=O)(=O)N3CCCCC3)cc21` (centres undefined), the concentration for half-maximal inhibition (IC50) is 31.7 µM. As for `Cc1ccc(C(=O)N2CCCC3(C2)Nc2cccnc2NC3=NC2CCCC2)s1` (centres undefined), the figure is > 50 µM (inactive); as for `Cn1c(=O)c(C(=O)CN2CCN(c3ccc(O)cc3)CC2)c(N)n(Cc2ccccc2)c1=O`, > 50 µM (inactive). As for `CC(=O)N1CCc2cc(CNC(=O)Nc3cc(C)ccc3C)ccc21`, the figure is > 50 µM (inactive). As for `Cc1cc(C)c2c(-n3cccc3)c(C(=O)NCCc3ccc(S(N)(=O)=O)cc3)sc2n1`, the figure is > 50 µM (inactive); as for `CCOC(=O)c1cn(C2CC2)c2cc(N3CCNCC3)c([N+](=O)[O-])cc2c1=O`, > 50 µM (inactive). In the case of `CC(C)c1cc(Nc2cccc(F)c2)n2nc(-c3cccnc3)nc2n1`, the IC50 is > 50 µM (inactive). As for `COc1ccccc1OCCNC(=O)c1cc(C2CC2)nc2c1cnn2C(C)C`, the figure is > 50 µM (inactive); as for `O=C(COc1ccc2c(c1)CCC2)Nc1ccc2c(c1)CCC2`, > 50 µM (inactive); as for `c1ccc(CCN2CCc3nc4cccnc4cc3C2)nc1`, > 50 µM (inactive). For the compound `CCCCCn1c(Sc2ccc(C)cc2)nc2c1c(=O)[nH]c(=O)n2C`, the IC50 was 35.1 µM. `CC(=O)Nc1cccc(NC(=O)COc2cccc3ccc(N4CCCC4)nc23)c1`: the IC50 is > 50 µM (inactive).

On to `O=C(COC(=O)c1n[nH]c2ccccc12)Nc1ccc(N2CCCCC2)cc1`, for which the half-inhibitory concentration (IC50) is 32 µM. Regarding `Cc1cc(NC(=O)c2[nH]nc3c2CCc2ccccc2-3)no1`, the IC50 was 37.9 µM. As for `Cc1nc(C(=O)Nc2cccc(Cl)c2Cl)nn1-c1cc(Cl)cc(Cl)c1`, the figure is > 50 µM (inactive); as for `Cc1ccc(S(=O)(=O)N(C)C)cc1NC(=O)Cc1ccc(Cl)c(Cl)c1`, > 50 µM (inactive); as for `N#Cc1c(N)nc2c(c1N)C(c1ccccc1)CO2` (centres undefined), > 50 µM (inactive). Consider `COc1ccc(C2SCC(=O)Nc3c2c(=O)[nH]n3C2CCCCCC2)cc1` (centres undefined), for which the IC50 is 30.1 µM. `C=C(NC(=O)C(=C)NC(=O)c1csc(-c2ccc3c(n2)-c2csc(n2)-c2csc(n2)C(C(C)C2CO2)NC(=O)C(Cc2ccc(O)cc2)NC(=O)c2csc(n2)C(C(O)c2ccccc2)NC(=O)c2nc(sc2C)C(CC(N)=O)NC(=O)c2csc-3n2)n1)C(=O)O` (centres undefined): the IC50 was 43.6 µM. Take `CCc1ccc(C(C)NC(=O)C2CCN(c3ccc4nncn4n3)CC2)cc1` (centres undefined): the IC50 was > 50 µM (inactive).

Regarding `O=c1c2ccccc2ncn1C1CCN(S(=O)(=O)c2ccccc2F)CC1`, the IC50 was > 50 µM (inactive). Take `Cc1cccc(-n2ccnc(SCC(=O)Nc3ccc(Cl)cc3F)c2=O)c1`: the concentration for half-maximal inhibition (IC50) was 27.7 µM. For `O=C(Nc1cccc(-c2nc3ccccc3[nH]2)c1)c1cc2ccccc2oc1=O`, the IC50 was 22 µM.

On to `COc1cc(-c2ccno2)ccc1S(=O)(=O)Nc1ccccc1Cl`, for which the IC50 is > 50 µM (inactive). As for `CCOc1ccccc1NC(=O)Cn1c(-c2ccc3c(c2)OCO3)cn(-c2ccc(OC)cc2)c1=O`, the figure is > 50 µM (inactive); as for `COc1ccc(NC(=O)c2ccnc(Nc3ccc(OC)cc3)c2)cc1`, > 50 µM (inactive). With `O=C(COc1ccc(Cl)cc1Cl)Nc1ccc2[nH]c(=O)[nH]c2c1`, the IC50 was 19.2 µM.

In the case of `Cc1cc(O)c2c3c(c(O)c4c(c13)O[C@@H](C)C4(C)C)C(=O)C2=O`, the IC50 is 31.9 µM. For the compound `O=C(NCCc1ccccc1)c1nnn(Cc2cccc(Cl)c2)c1-n1cccc1`, the IC50 was > 50 µM (inactive). As to `O=c1cc(CNc2ccc(Br)cc2)nc2nc(-c3ccccc3)[nH]n12`, the IC50 was > 50 µM (inactive).

In the case of `O=C(NCCn1ccc2ccccc21)c1cc2ccccc2oc1=O`, the IC50 is > 50 µM (inactive). As for `Nc1ccccc1SCc1noc(-c2cccs2)n1`, the figure is > 50 µM (inactive).

Take `CC(=O)c1oc2nc3c(c(-c4ccc(Cl)cc4)c2c1N)CCc1ccccc1-3`: the IC50 is > 50 µM (inactive). Take `O=C1CN(C(=O)COC(=O)CCCN2C(=O)c3cccc4cccc(c34)C2=O)c2ccccc2N1`: the IC50 is > 50 µM (inactive). `O=C(Nc1ncc2c(n1)-c1ccccc1CC2)C1CC1`: the IC50 is 35.9 µM. For the compound `COc1ccc(NC(=O)c2ccc(-n3nnnc3SC)cc2)cc1Cl`, the IC50 is > 50 µM (inactive). As for `O=C(NCc1ccc2c(c1)OCO2)c1nn(C23CC4CC(CC(C4)C2)C3)cc1[N+](=O)[O-]`, the IC50 was > 50 µM (inactive). Consider `N#Cc1c(SCCO)nc(N2CCCC2)c2c1CCCC2`, for which the IC50 was > 50 µM (inactive). As for `Cc1ccc(C)c(NC(=O)CCc2nc(CSc3nc4ccccc4o3)no2)c1`, the figure is 22 µM; as for `COc1cccc(-n2cnc3cc(C(=O)NC4CC4)ccc3c2=O)c1`, > 50 µM (inactive). As for `Cc1sc2ncn3c(=O)n(CC(=O)Nc4ccc(F)c(Cl)c4)nc3c2c1C`, the figure is > 50 µM (inactive).

Turning to `CC1CCCCN1c1nc(F)c2c(c1F)S(=O)(=O)CCN2Cc1ccccc1` (centres undefined), the IC50 is > 50 µM (inactive). Consider `NS(=O)(=O)c1ccc(CNS(=O)(=O)c2ccc(-c3ccccn3)s2)cc1`, for which the IC50 is 24.7 µM.

The values are drawn from PubChem BioAssay AID1645868 (Buhrlage Lab, Dana-Farber Cancer Institute and Novartis …, 2021).
